Assay results from publication PMC10150354, “Linearization of the Brevicidine and Laterocidine Lipopeptides Yields Analogues That Retain Full Antibacterial Activity” (Journal of Medicinal Chemistry, 2023).
In brackets after ≈: the same amount, converted by molar mass. *1 amine or outer side, *2 acyl side, *3 side chain or, on linkers, in order; H or OH if unused. Where a SMILES comes first, the peptide text is derived from it. [ ]: non-standard residue; d: D form. The star is where a group is joined. ξ: configuration not given here. X1 = C[C@@H](N=[N+]=[N-])[C@H](N[*:1])C(=O)[*:2]; Octanoyl(7-Me) = CC(C)CCCCCC(=O)*; Hexanoyl(4ξ-Me) = CCC(C)CCC(=O)*; dOrn = NCCC[C@@H](N)C(=O)O; Orn = NCCC[C@H](N)C(=O)O; Dap = NC[C@H](N)C(=O)O; Alloc = C=CCOC(=O)*

Assays:
P. aeruginosa PAO1 = format: cell-based, Pseudomonas aeruginosa; conditions: microbroth dilution per CLSI, MHB, 18 h at 37 °C, visual inspection, three technical replicates
How it was run: (§1)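 MIC taken as the lowest concentration with no visible growth after 18 h, 37 °C, shaking, three technical replicates. Peptides were serially diluted in MHB and received cells from TSB cultures at OD600 ~0.5, diluted to 2 × 10^5 CFU/mL (kanamycin selection for the mcr-1 E. coli), following CLSI guidelines.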

S. aureus USA300 = format: cell-based, Staphylococcus aureus; conditions: microbroth dilution per CLSI, MHB, 18 h at 37 °C, visual inspection, three technical replicates
How it was run: as §1

E. coli ATCC 25922 = format: cell-based, Escherichia coli; conditions: for Antibacterial activity (MIC) E. coli ATCC 25922: microbroth dilution per CLSI, MHB, 18 h at 37 °C, visual inspection, three technical replicates; for MIC (µg/mL) against E. coli (ATCC 25922): (Supplement 2)
How it was run: as §1

E. coli (MCR-1) = format: cell-based, Escherichia coli; conditions: microbroth dilution per CLSI, MHB, 18 h at 37 °C, visual inspection, three technical replicates, E. coli 25922 carrying mcr-1
How it was run: as §1

A. baumannii ATCC 17961 = format: cell-based, Acinetobacter baumannii; conditions: microbroth dilution per CLSI, MHB, 18 h at 37 °C, visual inspection, three technical replicates
How it was run: as §1

[1] = tested on: panel of Gram-negative and Gram-positive ESKAPE pathogens; format: cell-based; conditions: for fold improvement in activity with respect to C-terminal acids 4 and 5: MIC of C-terminal amide vs C-terminal acid; for fold reduction in activity compared to parent peptides: MIC vs brevicidine / laterocidine
Protocol: Linear laterocidine (LL-OH, 4) and linear brevicidine (LB-OH, 5) were first synthesized by Fmoc SPPS, starting from 2-chlorotrityl (2-CT) chloride resin. The antibacterial activity of these peptides was then compared to brevicidine (1) and laterocidine (2) using minimum inhibitory concentration (MIC)/microbroth dilution assays (Table 1). The MICs of all peptides were determined against a panel of Gram-negative and Gram-positive ESKAPE pathogens. Additionally, a strain of E. coli carrying the mcr-1 gene was included in the panel. The mcr-1 gene is a transferrable plasmid that confers resistance against colistin, a last-resort antibiotic for Gram-negative infections, by reducing the overall negative charge of lipopolysaccharide (LPS) through modification of lipid A with phosphoethanolamine. The propensity for cationic antibiotics to bind to the cell membrane is therefore reduced. This gene has been observed in more than 27 bacterial species over six continents.[26] The spread of the mcr-1 gene could render colistin ineffectual; therefore, novel antibacterials are urgently required to overcome this form of resistance.
All minimum inhibitory concentrations (MICs) were determined according to Clinical and Laboratory Standards Institute (CLSI) guidelines. Blood agar plates were inoculated with glycerol stocks of E. coli ATCC 25922, K. pneumoniae ATCC 13883, A. baumannii ATCC 17961, P. aeruginosa PAO1, and S. aureus USA300. The inoculated agar plates were then incubated for 16 h at 37 °C. Individually grown colonies were subsequently used to inoculate 5 mL aliquots of TSB that were then incubated at 37 °C with shaking at 220 rpm. E. coli 25922 MCR-1 glycerol stock was used to inoculate 5 mL of TSB supplemented with kanamycin that was then incubated for 16 h at 37 °C with shaking at 220 rpm. The next day the culture was diluted 100-fold in TSB supplemented with kanamycin and incubated at 37 °C with shaking at 220 rpm. In parallel, the lipopeptide antibiotics DMSO stocks to be assessed were serially diluted with MHB in polypropylene 96-well plates (50 μL in each well). Colistin sulfate stocks were dissolved in water before being diluted with MHB. Aliquots of the inoculated TSB were incubated until an OD600 of around 0.5 was reached. The bacterial suspensions were then diluted with MHB (2 × 10^5 CFU/mL) and added to the microplates containing the test compounds (50 μL to each well). The well plates were sealed with an adhesive membrane and after 18 h of incubation at 37 °C with shaking at 600 rpm, the wells were visually inspected for bacterial growth. MIC values reported are based on three technical replicates and defined as the lowest concentration of the compound that prevented visible growth of bacteria.

K. pneumoniae ATCC 13883 = format: cell-based, Klebsiella pneumoniae; conditions: microbroth dilution per CLSI, MHB, 18 h at 37 °C, visual inspection, three technical replicates
How it was run: as §1

| SMILES | Antibacterial activity (MIC) P. aeruginosa PAO1 (P. aeruginosa PAO1) [µg/mL] | Antibacterial activity (MIC) S. aureus USA300 (S. aureus USA300) [µg/mL] | Antibacterial activity (MIC) E. coli ATCC 25922 (E. coli ATCC 25922) [µg/mL] | Antibacterial activity (MIC) E. coli (MCR-1) (E. coli (MCR-1)) [µg/mL] | Antibacterial activity (MIC) A. baumannii ATCC 17961 (A. baumannii ATCC 17961) [µg/mL] | fold improvement in activity with respect to C-terminal acids 4 and 5 [1] [fold] | fold reduction in activity compared to parent peptides [1] | Antibacterial activity (MIC) K. pneumoniae ATCC 13883 (K. pneumoniae ATCC 13883) [µg/mL] | MIC (µg/mL) against E. coli (ATCC 25922) (E. coli ATCC 25922) [µg/mL] | MIC values, summarised over strains ([1]; against most strains of the panel) [µg/mL] |
| --- | --- | --- | --- | --- | --- | --- | --- | --- | --- | --- |
| CCC(C)CCC(=O)N[C@H](CC(N)=O)C(=O)N[C@H](Cc1ccc(O)cc1)C(=O)N[C@H](Cc1c[nH]c2ccccc12)C(=O)N[C@H](CCCN)C(=O)N[C@@H](CCCN)C(=O)NCC(=O)N[C@H](CCCN)C(=O)N[C@@H](Cc1c[nH]c2ccccc12)C(=O)N[C@H](C(=O)N[C@H](C(=O)NCC(=O)N[C@@H](CO)C(N)=O)[C@@H](C)CC)[C@@H](C)O (stereo partly shown) [LB-NH2 (7)] ({Hexanoyl(4ξ-Me)}-[dN][dY][dW][dOrn][Orn]G[dOrn]WTIGS-NH2) | 4 | >32 | 16 | 16 | 16 | 2 | 2/4 | 16 |  |  |
| CC[C@H](C)[C@H](NC(=O)[C@@H](NC(=O)[C@H](Cc1c[nH]c2ccccc12)NC(=O)[C@@H](CCCN)NC(=O)CNC(=O)[C@H](CCCN)NC(=O)[C@@H](CCCN)NC(=O)[C@@H](Cc1c[nH]c2ccccc12)NC(=O)[C@@H](Cc1ccc(O)cc1)NC(=O)[C@@H](CO)NC(=O)CCCCCC(C)C)[C@@H](C)O)C(=O)N[C@@H](CC(N)=O)C(=O)NCC(=O)NCC(N)=O [LL-NH2 (6)] ({Octanoyl(7-Me)}-[dS][dY][dW][dOrn][Orn]G[dOrn]WTINGG-NH2) | 4 | >32 | 4 | 8 | 8 | 2 | 2/4 | 4 to 8 |  |  |
| C=CCOC(=O)NC[C@H](NC(=O)[C@H](Cc1c[nH]c2ccccc12)NC(=O)[C@@H](CCCN)NC(=O)CNC(=O)[C@H](CCCN)NC(=O)[C@@H](CCCN)NC(=O)[C@@H](Cc1c[nH]c2ccccc12)NC(=O)[C@@H](Cc1ccc(O)cc1)NC(=O)[C@@H](CC(N)=O)NC(=O)CCC(C)CC)C(=O)N[C@H](C(=O)NCC(N)=O)[C@@H](C)CC (stereo partly shown) [Δ12LB (Dap[Alloc]9)-NH2 (61)] ({Hexanoyl(4ξ-Me)}-[dN][dY][dW][dOrn][Orn]G[dOrn]W[Dap](Alloc)IG-NH2) | 4 | >32 | 4 | 4 | 2 |  |  | 2 | 4 (≈ 2.63 µM) | 2 to 4 |
| CCC(C)CCC(=O)N[C@H](CC(N)=O)C(=O)N[C@H](Cc1ccc(O)cc1)C(=O)N[C@H](Cc1c[nH]c2ccccc12)C(=O)N[C@H](CCCN)C(=O)N[C@@H](CCCN)C(=O)NCC(=O)N[C@H](CCCN)C(=O)N[C@@H](Cc1c[nH]c2ccccc12)C(=O)N[C@H](C(=O)N[C@H](C(N)=O)[C@@H](C)CC)[C@@H](C)O (stereo partly shown) [Δ11–12LB-NH2 (11)] ({Hexanoyl(4ξ-Me)}-[dN][dY][dW][dOrn][Orn]G[dOrn]WTI-NH2) | 2 | >32 | 4 | 4 to 8 | 8 |  |  | 2 |  |  |
| CCC(C)CCC(=O)N[C@H](CC(N)=O)C(=O)N[C@H](Cc1ccc(O)cc1)C(=O)N[C@H](Cc1c[nH]c2ccccc12)C(=O)N[C@H](CCCN)C(=O)N[C@@H](CCCN)C(=O)NCC(=O)N[C@H](CCCN)C(=O)N[C@@H](Cc1c[nH]c2ccccc12)C(=O)N[C@@H](CC(=O)O)C(=O)N[C@H](C(=O)NCC(N)=O)[C@@H](C)CC (stereo partly shown) [Δ12LB (Asp9)-NH2 (63)] ({Hexanoyl(4ξ-Me)}-[dN][dY][dW][dOrn][Orn]G[dOrn]WDIG-NH2) | 4 | >32 | >32 | >32 | >32 |  |  | >32 | 4 (≈ 2.73 µM) |  |
| CC[C@H](C)[C@H](NC(=O)[C@@H](NC(=O)[C@H](Cc1c[nH]c2ccccc12)NC(=O)[C@@H](CCCN)NC(=O)CNC(=O)[C@H](CCCN)NC(=O)[C@@H](CCCN)NC(=O)[C@@H](Cc1c[nH]c2ccccc12)NC(=O)[C@@H](Cc1ccc(O)cc1)NC(=O)[C@@H](CO)NC(=O)CCCCCC(C)C)[C@@H](C)O)C(N)=O [Δ11–13LL-NH2 (12)] ({Octanoyl(7-Me)}-[dS][dY][dW][dOrn][Orn]G[dOrn]WTI-NH2) | 4 | 32 | 4 | 4 | 4 |  |  | 2 |  |  |
| CCC(C)CCC(=O)N[C@H](CC(N)=O)C(=O)N[C@H](Cc1ccc(O)cc1)C(=O)N[C@H](Cc1c[nH]c2ccccc12)C(=O)N[C@H](CCCN)C(=O)N[C@@H](CCCN)C(=O)NCC(=O)N[C@H](CCCN)C(=O)N[C@@H](Cc1c[nH]c2ccccc12)C(=O)N[C@@H](CCSC)C(=O)N[C@H](C(=O)NCC(N)=O)[C@@H](C)CC (stereo partly shown) [Δ12LB (Met9)-NH2 (55)] ({Hexanoyl(4ξ-Me)}-[dN][dY][dW][dOrn][Orn]G[dOrn]WMIG-NH2) | 4 | >32 | 4 | 4 | 4 |  |  | 4 | 2 (≈ 1.35 µM) |  |
| C=CCOC(=O)NC[C@H](NC(=O)[C@H](Cc1c[nH]c2ccccc12)NC(=O)[C@@H](CCCN)NC(=O)CNC(=O)[C@H](CCCN)NC(=O)[C@@H](CCCN)NC(=O)[C@@H](Cc1c[nH]c2ccccc12)NC(=O)[C@@H](Cc1ccc(O)cc1)NC(=O)[C@@H](CO)NC(=O)CCCCCC(C)C)C(=O)N[C@H](C(=O)N[C@@H](CC(N)=O)C(=O)NCC(=O)NCC(N)=O)[C@@H](C)CC [LL(Dap[Alloc]9)-NH2 (50)] ({Octanoyl(7-Me)}-[dS][dY][dW][dOrn][Orn]G[dOrn]W[Dap](Alloc)INGG-NH2) | 8 | >32 | 2 | 4 | 4 |  |  | 4 | 2 (≈ 1.18 µM) |  |
| CCC(C)CCC(=O)N[C@H](CC(N)=O)C(=O)N[C@H](Cc1ccc(O)cc1)C(=O)N[C@H](Cc1c[nH]c2ccccc12)C(=O)N[C@H](CCCN)C(=O)N[C@@H](CCCN)C(=O)NCC(=O)N[C@H](CCCN)C(=O)N[C@@H](Cc1c[nH]c2ccccc12)C(=O)N[C@H](C(=O)N[C@H](C(=O)NCC(N)=O)[C@@H](C)CC)[C@@H](C)N=[N+]=[N-] (stereo partly shown) [Δ12LB (MeAbu9)-NH2 (60)] ({Hexanoyl(4ξ-Me)}-[dN][dY][dW][dOrn][Orn]G[dOrn]W[X1]IG-NH2) | 4 | >32 | 4 | 4 | 2 |  |  | 2 | 8 (≈ 5.42 µM) |  |
